{"source": "paper PMC10892818", "about": "“An Antiherpesviral Host-Directed Strategy Based on CDK7 Covalently Binding Drugs: Target-Selective, Picomolar-Dose, Cross-Virus Reactivity” (Pharmaceutics, 2024)", "key": {"VZV Oka-GFP": {"tested_on": "VZV Oka-GFP", "assay": "microbe, parasite or virus in culture", "assay_type": "cell-based, varicella zoster virus", "details": "for EC50: Human alphaherpesvirus 3, 96 h", "from_the_text": "The virus recombinants VZV Oka-GFP and rKSHV.219-GFP/RFP were used for the infection of HFFs (virus stock VZV Oka-GFP applied as a cell-bound inoculum as described before) or were continuously passaged in iSLK.219 carrier cells, respectively (Figure 1). The conditions of the GFP/RFP-based assays were adapted to both the 96 well (Figure 1A,B) and 12 well formats, and details including the assessment of antiviral reference drugs are given (Figure 1C,D).\nThe virus recombinants VZV Oka-GFP and rKSHV.219-GFP/RFP were used for the infection of HFFs (VZV) or were continuously passaged in iSLK.219 carrier cells (KSHV), respectively, and cell viability was determined by NRA performed with uninfected HFFs or uninduced iSLK.219 cells, respectively. (A,B) Schematic depiction of the assay systems performed in a 96 well plate format. […] For the VZV-GFP system, virus stock VZV Oka-GFP was applied as a cell-bound infectious inoculum. After a 90 min period of inoculum adsorption to the cell surfaces, antiviral compounds were added to the culture media at serial dilutions (DMSO served as a solvent control for drug treatment of infected cells, while mock-infected cells served as a negative control). For the KSHV-GFP/RFP system, iSLK.219 cell lytic replication of KSHV (RFP reporter signal) was induced by the addition of 0.05 or 0.5 µg/mL doxycycline (dox) to the culture media. Cultivated dox-induced iSLK.219 cells were treated with antiviral compounds added at serial dilutions (DMSO served as a positive infection solvent control, while dox-untreated mock cells served as a negative control). HFFs or iSLK.219 cells were harvested at 4 d p.i. or 1 d after treatment, respectively, fixed by a 10 min incubation with 10% formalin, washed with PBS, and used for quantitation of the GFP or RFP reporter signal by PicoMD counting (ImageXpress® Pico device, Molecular Devices LLC, San Jose, CA, USA), with data evaluation using CellReporterXpress® software (version 2.9.3.1183, Molecular Devices LLC) as described earlier in [63]. (C) The antiviral activity of the reference drugs was determined with the VZV-GFP system in the 96 well format. EC50 values refer to measurements in quadruplicate, and the mean values ± SD of two experimental replicates are given. (D) The antiviral activity of the reference drugs was determined with the KSHV-GFP/RFP system in the 96 well format. EC50 values refer to measurements in triplicate, and the mean values ± SD are given for each of the two depicted experimental replicates."}, "HCMV UL97-C480F": {"tested_on": "HCMV UL97-C480F", "assay": "HCMV reporter-based antiviral assay, drug-resistant mutant", "assay_type": "cell-based, human cytomegalovirus", "details": "Human betaherpesvirus 5, read-out: Measured EC50 ref. drugs UL97-C480F", "experimental": "(§1) For the infection experiments, stocks of the following recombinant, reporter protein-expressing viruses (GFP or YFP (i.e., green or yellow fluorescent protein, respectively)) were propagated (in permissive cells), determined in their infectious titers performing the respective reporter assays, stored by aliquots at −80 °C, and used for the assessment of antiviral drug activities: human cytomegalovirus HCMV AD169-GFP (HFFs); murine cytomegalovirus MCMV C3X-GFP (MEFs); guinea pig cytomegalovirus GPCMV v403-GFP (GPEFs); human herpesvirus type 6A HHV-6A U1102-GFP (J-Jhan); herpes simplex virus type 1 HSV-1 166v VP22-GFP (HFFs); varicella zoster virus VZV Oka-GFP (HFFs); Epstein-Barr virus EBV Akata-GFP (Akata-BX1-GFP carrier cells; kindly provided by Lindsey Hutt-Fletcher and Rona Scott, Dept. Microbiol. Immunol., LSUHSC Univ., Shreveport, LA, USA); and Kaposi’s sarcoma-associated herpesvirus KSHV rKSHV.219-GFP/RFP (in iSLK.219 carrier cells).\n(§2) For HCMV AD169-GFP infection, the replication assay was based on a seeding of 225,000 HFFs or 13,500 HFFs in 12 well or 96 well plates, respectively, which were then inoculated with HCMV AD169-GFP [55] at an MOI of 0.25 GFP-FU/mL/7 d for a 90 min period of inoculum–cell adsorption, followed by a medium refreshment including the immediate addition of antiviral compounds. At 7 d p.i., the infected HFFs were either directly fixed with 10% formalin for 20 min at 4 °C (when used for infection in the 96 well format) or lysed and transferred to 96 well plates (when used for infection in the 12 well format) so that the reporter of viral replication could be quantified by GFP fluorometry using a Perkin Elmer Victor X4 Multimode Plate Reader (Perkin Elmer, Waltham, MA, USA).\n(§3) Due to the fact that the HCMV-encoded protein kinase pUL97 represents a functional and structural ortholog of the host CDKs (vCDK/pUL97), the viral mutants of ORF-UL97 were assessed for sensitivity against CDK7 inhibitors."}, "HCMV UL97-C592G": {"tested_on": "HCMV UL97-C592G", "assay": "HCMV reporter-based antiviral assay, drug-resistant mutant", "assay_type": "cell-based, human cytomegalovirus", "details": "Human betaherpesvirus 5, read-out: Measured EC50 ref. drugs UL97-C592G", "experimental": "as §1, §2, §3"}, "HCMV UL97-F342S [1]": {"tested_on": "HCMV UL97-F342S", "assay": "HCMV reporter-based antiviral assay, drug-resistant mutant", "assay_type": "cell-based, human cytomegalovirus", "details": "Human betaherpesvirus 5, read-out: Measured EC50 ref. drugs UL97-F342S", "experimental": "as §1, §2, §3"}, "HCMV UL97-H469V": {"tested_on": "HCMV UL97-H469V", "assay": "HCMV reporter-based antiviral assay, drug-resistant mutant", "assay_type": "cell-based, human cytomegalovirus", "details": "Human betaherpesvirus 5, read-out: Measured EC50 ref. drugs UL97-H469V", "experimental": "as §1, §2, §3"}, "HCMV UL97-H520Q": {"tested_on": "HCMV UL97-H520Q", "assay": "HCMV reporter-based antiviral assay, drug-resistant mutant", "assay_type": "cell-based, human cytomegalovirus", "details": "Human betaherpesvirus 5, read-out: Measured EC50 ref. drugs UL97-H520Q", "experimental": "as §1, §2, §3"}, "HCMV UL97-L397R": {"tested_on": "HCMV UL97-L397R", "assay": "HCMV reporter-based antiviral assay, drug-resistant mutant", "assay_type": "cell-based, human cytomegalovirus", "details": "Human betaherpesvirus 5, read-out: Measured EC50 ref. drugs UL97-L397R", "experimental": "as §1, §2, §3"}, "HCMV UL97-M460I": {"tested_on": "HCMV UL97-M460I", "assay": "HCMV reporter-based antiviral assay, drug-resistant mutant", "assay_type": "cell-based, human cytomegalovirus", "details": "Human betaherpesvirus 5, AD169, read-out: Measured EC50 ref. drugs UL97-M460I", "experimental": "as §1, §2, §3"}, "HCMV UL97-T409M": {"tested_on": "HCMV UL97-T409M", "assay": "HCMV reporter-based antiviral assay, drug-resistant mutant", "assay_type": "cell-based, human cytomegalovirus", "details": "Human betaherpesvirus 5, read-out: Measured EC50 ref. drugs UL97-T409M", "experimental": "as §1, §2, §3"}, "HCMV UL97-F342S [2]": {"tested_on": "HCMV UL97-F342S", "set-up": "method as in PMID 31940472; key: R-high, high-level drug resistance; R-int, intermediate-level drug resistance; R-low, low-level drug resistance; S, drug sensitivity", "details": "(for F342Y); cited from earlier work"}, "HCMV UL97-C603W": {"tested_on": "HCMV UL97-C603W", "set-up": "method as in PMID 31940472; key: R-high, high-level drug resistance; R-int, intermediate-level drug resistance; R-low, low-level drug resistance; S, drug sensitivity", "details": "cited from earlier work"}, "[3]": {"details": "read-out: VZV EC50 (first experimental replicate)"}, "[4]": {"details": "read-out: VZV EC50 (second experimental replicate)"}}, "note": "Like-named read-outs stand apart in the source and are kept apart here."}
{"smiles": "Nc1ccn(C[C@@H](CO)OCP(=O)(O)O)c(=O)n1", "note": "[CDV, cidofovir]", "values": [{"measurement": "SI (VZV-GFP system)", "setting": "VZV Oka-GFP; 96 well format", "result": "> 323"}, {"measurement": "EC50", "setting": "VZV Oka-GFP; [3]", "result": "300 ± 100", "unit": "nM"}, {"measurement": "EC50", "setting": "VZV Oka-GFP; [4]", "result": "300 ± 200", "unit": "nM"}, {"measurement": "EC50", "setting": "HCMV UL97-C480F", "result": 400, "unit": "nM"}, {"measurement": "EC50", "setting": "HCMV UL97-C592G", "result": 400, "unit": "nM"}, {"measurement": "EC50", "setting": "HCMV UL97-F342S [1]", "result": 190, "unit": "nM"}, {"measurement": "EC50", "setting": "HCMV UL97-H469V", "result": 180, "unit": "nM"}, {"measurement": "EC50", "setting": "HCMV UL97-H520Q", "result": 100, "unit": "nM"}, {"measurement": "EC50", "setting": "HCMV UL97-L397R", "result": 340, "unit": "nM"}, {"measurement": "EC50", "setting": "HCMV UL97-M460I", "result": 70, "unit": "nM"}, {"measurement": "EC50", "setting": "HCMV UL97-T409M", "result": 260, "unit": "nM"}, {"measurement": "Reported phenotype UL97-F342S", "setting": "HCMV UL97-F342S [2]", "result": "S"}, {"measurement": "Reported phenotype UL97-C603W", "setting": "HCMV UL97-C603W", "result": "S"}]}
{"smiles": "Nc1nc(O)c2ncn(COC(CO)CO)c2n1", "note": "[GCV, ganciclovir]", "values": [{"measurement": "EC50", "setting": "VZV Oka-GFP; [3]", "result": "1000 ± 800", "unit": "nM"}, {"measurement": "EC50", "setting": "VZV Oka-GFP; [4]", "result": "2900 ± 2700", "unit": "nM"}, {"measurement": "EC50", "setting": "HCMV UL97-C480F", "result": "10500 ± 2200", "unit": "nM"}, {"measurement": "EC50", "setting": "HCMV UL97-C592G", "result": "4670 ± 1100", "unit": "nM"}, {"measurement": "EC50", "setting": "HCMV UL97-F342S [1]", "result": "17100 ± 1500", "unit": "nM"}, {"measurement": "EC50", "setting": "HCMV UL97-H469V", "result": "1220 ± 200", "unit": "nM"}, {"measurement": "EC50", "setting": "HCMV UL97-H520Q", "result": "10700 ± 700", "unit": "nM"}, {"measurement": "EC50", "setting": "HCMV UL97-L397R", "result": "2240 ± 500", "unit": "nM"}, {"measurement": "EC50", "setting": "HCMV UL97-M460I", "result": "9240 ± 3300", "unit": "nM"}, {"measurement": "EC50", "setting": "HCMV UL97-T409M", "result": "1980 ± 200", "unit": "nM"}, {"measurement": "Reported phenotype UL97-F342S", "setting": "HCMV UL97-F342S [2]", "result": "R-high"}, {"measurement": "Reported phenotype UL97-C603W", "setting": "HCMV UL97-C603W", "result": "R-high"}]}
